Laboratory results taken from patent US9862711B2, “Pyrazine derivatives as phosphatidylinositol 3-kinase inhibitors” (NOVARTIS AG, priority 2014, dated 2018).

Key:
PI 3-kinase beta = PI 3-kinase beta (Homo sapiens (Human), UniProt P42338); test: Kinase Glo Luminescent Kinase Assay (Assay B); format: biochemical; conditions: 1 μM ATP, read-out: Assay B PI3Kβ IC50
Text: (§1) Kinase Glo Luminescent Kinase Assay (Kglo) for PI 3-Kinase Alpha (A), Pb 3-Kinase Beta (B), Vps34 (C), PI 4-Kinase Beta (D)
(§2) The luminescence-based ATP detection reagent KinaseGlo was obtained from Promega, (Cat. No. V6714, Lot No. 236161) through Catalys, Wallisellen, Switzerland. L-alpha-phosphatidylinositol (PI, liver, bovine) was obtained from Avanti Polar Lipid (Cat. No. 840042C, Lot#LPI-274), Phosphatidylinositol-4,5-bisphosphate (PIP(4,5)2) was also obtained from Avanti Polar Lipid (Cat. No. 840046X). L-α-Phosphatidylserine (PS) was obtained from Avanti Polar Lipid (Cat. No. 840032C), n-Octylglucoside from Avanti Polar Lipid (Cat. No. 10634425001). Luminescence is a well established readout to determine ATP concentrations and can thus be used to follow the activity of many kinases regardless of their substrate. The Kinase Glo Luminescent Kinase Assay (Promega, Madison/WI, USA) is a homogeneous HTS method of measuring kinase activity by quantifying the amount of ATP remaining in solution following a kinase reaction.
(§3) 50 nL of compound dilutions were dispensed onto black 384-well low volume Non Binding Styrene (NBS) plates (Costar Cat. No. NBS#3676). L-α-phosphatidylinositol (PI), provided as 10 mg/ml solution in methanol, was transferred into a glass tube and dried under a nitrogen beam. It was then resuspended in 3% OctylGlucoside (1-O-n-octyl-beta-D-glucopyranoside) by vortexing and stored at 4° C. 5 μL of a mix of PI/OctylGlucoside with the PI 3-kinase alpha and PI 3-kinase beta subtypes, or Vps34 or PI 4-kinase beta were added. Kinase reactions were started by the addition of 5 μl of an ATP-mix containing in a final volume 10 μL 10 mM TRIS-HCl pH 7.5, 3 mM MgCl2, 50 mM NaCl, 0.05% CHAPS, 1 mM DTT and 1 μM ATP at room temperature. Reactions were stopped with 10 μl of KinaseGlo and plates were read 10 mins later in a Synergy2 reader using an integration time of 0.1 seconds per well. 2.5 μM of NVP-BGT226 (1-(3-(trifluoromethyl)-4-(piperazin-1-yl)phenyl)-8-(6-methoxypyridin-3-yl)-3-methyl-1H-imidazo[4,5-c]quinolin-2(3H)-one) was added to the assay plates to generate the 100% inhibition of the kinase reaction, and the 0% inhibition was given by the solvent vehicle (90% DMSO in water). (1-(3-(trifluoromethyl)-4-(piperazin-1-yl)phenyl)-8-(6-methoxypyridin-3-yl)-3-methyl-1H-imidazo[4,5-c]quinolin-2(3H)-one) was used as a reference compound and included in all assay plates in the form of 16 dilution points in duplicate.
(§4) IC50 values of the percentage inhibition of each compound at 8 concentrations (10, 3.0, 1.0, 0.3, 0.1, 0.030, 0.010 and 0.003 μM) n=2 were derived by fitting a sigmoidal dose-response curve to a plot of assay readout over inhibitor concentration as described. All fits were performed with the program XLfit4 (ID Business Solutions, Guildford, UK).

Vps34 = Vps34 (Homo sapiens (Human), UniProt Q8NEB9); test: Kinase Glo Luminescent Kinase Assay (Assay C); format: biochemical; conditions: 1 μM ATP
Sequence of Vps34 (Q8NEB9 whole entry, species assumed): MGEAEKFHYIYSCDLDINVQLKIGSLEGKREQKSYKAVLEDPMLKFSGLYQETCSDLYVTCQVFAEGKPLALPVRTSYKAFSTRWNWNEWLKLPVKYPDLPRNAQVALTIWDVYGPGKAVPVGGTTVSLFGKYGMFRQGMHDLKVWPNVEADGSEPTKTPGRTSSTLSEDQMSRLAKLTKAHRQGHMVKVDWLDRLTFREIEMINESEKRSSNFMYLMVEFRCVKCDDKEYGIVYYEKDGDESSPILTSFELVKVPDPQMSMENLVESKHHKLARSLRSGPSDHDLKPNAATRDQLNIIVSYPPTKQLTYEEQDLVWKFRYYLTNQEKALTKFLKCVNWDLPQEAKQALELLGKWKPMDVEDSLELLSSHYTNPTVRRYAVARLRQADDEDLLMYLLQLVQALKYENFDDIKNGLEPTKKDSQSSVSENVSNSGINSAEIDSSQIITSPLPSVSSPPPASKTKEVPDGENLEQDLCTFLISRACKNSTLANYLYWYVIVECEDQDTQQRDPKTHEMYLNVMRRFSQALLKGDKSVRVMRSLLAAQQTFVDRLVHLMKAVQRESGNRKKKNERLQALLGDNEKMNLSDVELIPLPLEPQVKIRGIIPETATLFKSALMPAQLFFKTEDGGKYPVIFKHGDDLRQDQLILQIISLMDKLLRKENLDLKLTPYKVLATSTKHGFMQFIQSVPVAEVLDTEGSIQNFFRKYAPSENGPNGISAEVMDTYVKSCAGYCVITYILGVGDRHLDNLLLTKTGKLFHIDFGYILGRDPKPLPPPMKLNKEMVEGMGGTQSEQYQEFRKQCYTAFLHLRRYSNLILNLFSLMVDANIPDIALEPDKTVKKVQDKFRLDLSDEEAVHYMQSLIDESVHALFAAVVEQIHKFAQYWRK
Text: as §1, §2, §3, §4

Sequence of PI 3-kinase beta (P42338 2-1070): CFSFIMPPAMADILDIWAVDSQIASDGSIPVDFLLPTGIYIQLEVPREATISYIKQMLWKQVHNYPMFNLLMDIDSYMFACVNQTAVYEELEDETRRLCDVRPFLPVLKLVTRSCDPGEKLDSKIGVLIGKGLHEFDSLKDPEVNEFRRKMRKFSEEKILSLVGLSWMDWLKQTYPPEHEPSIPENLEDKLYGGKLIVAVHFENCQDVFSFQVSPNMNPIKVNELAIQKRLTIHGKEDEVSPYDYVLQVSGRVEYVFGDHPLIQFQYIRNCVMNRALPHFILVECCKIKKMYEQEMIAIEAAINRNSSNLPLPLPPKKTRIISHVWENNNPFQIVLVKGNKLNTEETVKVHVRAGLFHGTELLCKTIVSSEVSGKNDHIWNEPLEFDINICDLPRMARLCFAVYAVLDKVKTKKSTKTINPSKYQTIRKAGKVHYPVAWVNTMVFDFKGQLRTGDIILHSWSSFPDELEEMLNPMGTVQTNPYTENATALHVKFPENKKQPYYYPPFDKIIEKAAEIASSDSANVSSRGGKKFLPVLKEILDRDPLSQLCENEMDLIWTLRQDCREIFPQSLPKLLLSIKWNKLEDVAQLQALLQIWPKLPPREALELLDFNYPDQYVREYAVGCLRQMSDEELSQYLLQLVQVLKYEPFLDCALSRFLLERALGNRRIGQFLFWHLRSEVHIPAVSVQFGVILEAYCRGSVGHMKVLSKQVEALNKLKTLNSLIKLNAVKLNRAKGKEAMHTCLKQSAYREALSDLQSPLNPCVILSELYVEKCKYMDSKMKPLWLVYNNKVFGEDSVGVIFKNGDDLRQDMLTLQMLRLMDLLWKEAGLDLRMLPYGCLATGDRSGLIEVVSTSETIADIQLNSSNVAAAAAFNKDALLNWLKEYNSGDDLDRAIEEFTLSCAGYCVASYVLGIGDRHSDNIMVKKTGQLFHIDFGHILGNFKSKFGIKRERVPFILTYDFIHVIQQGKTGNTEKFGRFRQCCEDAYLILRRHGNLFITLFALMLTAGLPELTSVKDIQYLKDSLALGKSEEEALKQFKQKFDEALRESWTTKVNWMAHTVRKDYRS

SMILES | IC50 (PI 3-kinase beta) | IC50 (Vps34)
Cc1ccc(S(=O)(=O)NCCC(C)(C)O)cc1-c1cncc(-c2cn(C)nc2C)n1 [Example 3, 3-[6-(1,3-Dimethyl-1H-pyrazol-4-yl)-pyrazin-2-yl]-N-(3-hydroxy-3-methyl-butyl)-4-methyl-benzenesulfonamide] | 1.45 µM | 5.3 µM
Cc1ncc(-c2cncc(-c3cc(S(=O)(=O)N[C@H]4CC[C@H](O)CC4)ccc3C)n2)s1 [Example 5, Trans N-(4-Hydroxycyclohexyl)-4-methyl-3-(6-(2-methylthiazol-5-yl)pyrazin-2-yl)benzenesulfonamide] | 1.12 µM | 1.81 µM
Cc1ccc(S(=O)(=O)NCC2(C)COC2)cc1-c1cncc(-c2cn(C)nc2C)n1 [Example 4, Trans 3-[6-(1,3-Dimethyl-1H-pyrazol-4-yl)-pyrazin-2-yl]-4-methyl-N-(3-methyl-oxetan-3-ylmethyl)-benzenesulfonamide] | 0.68 µM | 4.3 µM
Cc1ccc(S(=O)(=O)NCC(C)(C)O)cc1-c1cncc(-c2cn(C)nc2C)n1 [Example 2, 3-[6-(1,3-Dimethyl-1H-pyrazol-4-yl)-pyrazin-2-yl]-N-(2-hydroxy-2-methyl-propyl)-4-methyl-benzenesulfonamide] | 0.71 µM | 3.45 µM
Cc1ccc(S(=O)(=O)N[C@H]2CC[C@H](O)CC2)cc1-c1cncc(-c2cccnc2)n1 [Example 11, Trans N-(4-Hydroxy-cyclohexyl)-4-methyl-3-(6-pyridin-3-yl-pyrazin-2-yl)-benzenesulfonamide] | 3.93 µM | 3.08 µM
Cc1ccc(S(=O)(=O)NCCC(C)(C)O)cc1-c1cncc(-c2cn(CCN3CCOCC3)nc2C)n1 [Example 10, N-(3-Hydroxy-3-methyl-butyl)-4-methyl-3-{6-[3-methyl-1-(2-morpholin-4-yl-ethyl)-1H-pyrazol-4-yl]-pyrazin-2-yl}-benzenesulfonamide] | 8.5 µM | > 10 µM
Cc1ccc(S(=O)(=O)NCCC(C)(C)O)cc1-c1cncc(-c2cnn(CCN3CCOCC3)c2)n1 [Example 9, N-(3-Hydroxy-3-methyl-butyl)-4-methyl-3-{6-[1-(2-morpholin-4-yl-ethyl)-1H-pyrazol-4-yl]-pyrazin-2-yl}-benzenesulfonamide] | > 9.1 µM | > 9.1 µM
Cc1ncc(-c2cncc(-c3cc(S(=O)(=O)NCCCO)ccc3C)n2)s1 [Example 1, N-(3-Hydroxy-propyl)-4-methyl-3-[6-(2-methyl-thiazol-5-yl)-pyrazin-2-yl]-benzenesulfonamide] | 6.16 µM | 3.07 µM
Cc1ccc(S(=O)(=O)NCC(C)(C)CO)cc1-c1cncc(-c2cn(C)nc2C)n1 [Example 8, 3-[6-(1,3-Dimethyl-1H-pyrazol-4-yl)-pyrazin-2-yl]-N-(3-hydroxy-2,2-dimethyl-propyl)-4-methyl-benzenesulfonamide] | 0.68 µM | 4.4 µM
